Assay results reported in patent US20100150842A1, “Method and Kit for Detecting Resistance in Living Organisms” (priority 2007, published 2010).
Like-named read-outs stand apart in the source and are kept apart here.

Experiments:
[1] = cited from earlier work
[2] = tested on: Stellaria media SU-susceptible and SU-resistant biotype; assay: Biomarker pattern (HPPC) in extracts of Stellaria media exposed to iodosulfuron; type: in vivo; conditions: for number of type B biomarkers detected in extracts of susceptible plants: 50% of recommended field dose
Experimental: A SU-susceptible and SU-resistant biotype of Stellaria media was cultivated outdoors in 2-litre pots. At the 4-5 leaf stage the plants were exposed to iodosulfuron (IOD) applied in mixture with a methylated vegetable oil (Renol). Iodosulfuron was applied at 50% of the recommended field dose. The plants were harvested 4, 7 and 14 days after exposure. Immediately after harvest the plants were frozen and freeze-dried.
Freeze-dried plant material (50 mg per ml of 75% ethanol) was extracted in ultrasonic bath with ice for two hours. The extracts were centrifuged before analysis.
A biomarker pattern was detected as phytochemical changes in plant extracts. A comparison of the extracts of an un-treated susceptible (Biotype 1) and an untreated resistant (Biotype 2) of Stellaria media is shown as biomarkers type A. See further description in Example 3.
A comparison of extracts of the same biotypes exposed to iodosulfuron is shown as biomarkers type B. See further description in Example 3.
High Performance Planar Chromatography (HPPC)-systems were used to detect the two types of biomarkers.

[3] = tested on: Papaver rhoeas sensitive and target resistant biotypes; assay: TLC analysis of Papaver rhoeas extracts, unexposed and exposed to Hussar OD; type: in vivo
Excerpt: S0=ID 150 Biotype 4 sensitive control S1=ID 150 Biotype 4 sensitive exposed to 1N Hussar OD+0.5 I/ha Renol R0=ID 397 Biotype 5 Target resistant control R1=ID 397 Biotype 5 Target resistant exposed to 1N Hussar OD+0.5 I/ha Renol R10=ID 397 Biotype 5 Target resistant exposed to 10N Hussar OD+0.5 I/ha Renol R20=ID 248 Biotype 6 Target resistant exposed control R21=ID 248 Biotype 6 Target resistant exposed to 1N Hussar OD+0.5 I/ha Renol R210=ID 248 Biotype 6 Target resistant exposed to 10N Hussar OD+0.5 I/ha Renol R30=ID 406 Biotype 12 Target resistant exposed control R31=ID 406 Biotype 12 Target resistant exposed to 1N Hussar OD+0.5 I/ha Renol R310=ID 406 Biotype 12 Target resistant exposed to 10N Hussar OD+0.5 I/ha Renol
100 mg freeze-dried plant material (Papaver rhoeas (Papaveraceae) in 4.00 ml 80% Ethanol extracted for 20 min. in ultrasonic bath (Realisation Etudes Ultra Son (REUS), 16, allée des Cystes, 06390 Contes, France). The extract was filtered through GELMAN GHP Agrodisc 13 0.45 μm.
The extracts (20 μl) were applicated on Silicagel 60 Merck 1.05721 (10×20 cm) or (10 μl) Cellulose aluminium Merck 1.05552.0001 together with the reference 1 0/00 papaverin in ethanol using a TLC Automatic TLC Sampler III.
TLC 5) Plate: Cellulose; Solvent: 2% Acetic acid in Water. The results can be seen in FIG. 7.
Detection: UV 366 nm after derivatisation with NEU+PEG is seen in FIG. 7b.

[4] = tested on: Stellaria media sensitive and target resistant biotypes; assay: TLC analysis of Stellaria media extracts, unexposed and exposed to Hussar OD; type: in vivo
Excerpt: S0=ID 1 Biotype 1 sensitive control S1=ID 1 Biotype 1 sensitive exposed to 1N Hussar OD+0.5 I/ha Renol R10=ID 9 Biotype 2 Target resistant control R11=ID 9 Biotype 2 Target resistant exposed to 1N Hussar OD+0.5 I/ha Renol R110=ID 9 Biotype 2 Target resistant exposed to 10N Hussar OD+0.5 I/ha Renol R20=ID 102 Biotype 3 Target resistant exposed control R21=ID 102 Biotype 3 Target resistant exposed to 1N Hussar OD+0.5 I/ha Renol R210=ID 102 Biotype 3 Target resistant exposed to 10N Hussar OD+0.5 I/ha Renol
Et=100 mg freeze-dried plant material in 4.00 ml 80% Ethanol extracted for 20 min. in ultrasonic bath (Réalisation Etudes Ultra Son (REUS), 16, allée des Cystes, 06390 Contes, France).
Aq=50 mg freeze-dried plant material in 4.00 ml 80% Ethanol extracted for 20 min. in ultrasonic bath (Réalisation Etudes Ultra Son (REUS), 16, allée des Cystes, 06390 Contes, France)+200 it EtOH after filtration.
The extracts (10 μl) were applicated on Silicagel 60 Merck 1.05721 (10×20 cm) or (5 μl) Cellulose aluminium Merck 1.05552.0001 with together with the reference T=1 0/00× in ethanol using a TLC Automatic TLC Sampler III.

[5] = tested on: SU-resistant Stellaria media biotypes; assay: Resistance factors of SU-resistant Stellaria media biotypes to herbicides (ratio of ED50 values); type: in vivo
Excerpt: The sensitivity to a specific herbicide of each biotype can be tested by determining the amount of herbicide needed to reduce the biomass to 50% of the non-treated plants of the same biotype. When comparing sensitivity among biotypes the “resistance factor” can be used to characterise the sensitivity.
The “resistance factor” is used to characterize the extent of susceptibility and resistance of a species to a herbicide. Resistance factors are typically represented as a ration of ED50 values for different biotypes.
The resistance factor is the ratio of the ED50 value of the resistant and susceptible biotypes.
Results from a study with 6 SU-resistant (Sulfonylurea-resistant) Stellaria media biotypes are included.

[6] = tested on: fish and aquatic invertebrates; conditions: water bodies; cited from earlier work

SMILES: O=C(O)CNCP(=O)(O)O [Glyphosate]
- half-life ([1]; degraded by rapid microbial action): 3-5 weeks

SMILES: COc1nc(C)nc(NC(=O)NS(=O)(=O)c2cc(I)ccc2C(=O)O)n1 [iodosulfuron]
- number of type B biomarkers detected in extracts of susceptible plants ([2]; 7 and 14 days after exposure): 7
- number of type B biomarkers detected in extracts of susceptible plants ([2]; 4 days after exposure): Five
- unique biomarker pattern in extracts ([2]; SU-resistant Stellaria media biotype): absent
- unique biomarker pattern in extracts ([2]; susceptible Stellaria media biotype, 4, 7 and 14 days after exposure): detected
- new flavonoid in plant extract (TLC) ([3]; Papaver rhoeas biotypes of the target resistant plants): not present
- new flavonoid in plant extract (TLC) ([3]; Papaver rhoeas sensitive plant exposed): present
- new flavonoid in plant extract (TLC) ([4]; Stellaria media sensitive plant exposed): present
- new flavonoid in plant extract (TLC) ([4]; Stellaria media target resistant biotypes, only at very high exposure concentrations (10N)): not present

SMILES: N#Cc1cc(Br)c(O)c(Br)c1 [Bromoxynil]
- half-life ([1]; most soil types): two

SMILES: COc1ncc(F)c2nc(S(=O)(=O)Nc3c(F)cccc3F)nn12 [florasulam]
- cross-resistance of SU-resistant biotypes [5]: could not be confirmed

SMILES: CCC(CC)Nc1c([N+](=O)[O-])cc(C)c(C)c1[N+](=O)[O-] [Pendimethalin]
- toxicity to fish [6]: toxic
